Assay results taken from ChEMBL document CHEMBL5120927, “LEGO-Lipophosphonoxins: A Novel Approach in Designing Membrane Targeting Antimicrobials” (J Med Chem, 2022).
Activity calls are given as the source filed them. The rule behind the calls is not given here.

Experiments:
Escherichia coli = assay: Antibacterial activity against Escherichia coli ATCC 25922 = CCM 3954 assessed as inhibition of bacterial growth incubated for 24 hrs in presence of BSA by microdilution assay; assay type: functional
Pseudomonas aeruginosa [1] = assay: Antibacterial activity against Pseudomonas aeruginosa ATCC 27853 = CCM 3955 assessed as inhibition of bacterial growth incubated for 24 hrs by microdilution assay; assay type: functional
[2] = Hemolytic activity in human RBC assessed as haemoglobin release measured after 3 hr; assay type: toxicity, cell-based, Erythrocyte; details: red blood cells (erythrocytes)
Staphylococcus aureus [3] = assay: Antibacterial activity against wild type Staphylococcus aureus 4904/C assessed as reduction in microbial growth incubated for 24 hrs by microdilution assay; assay type: functional
Staphylococcus aureus [4] = assay: Antibacterial activity against […] Staphylococcus aureus 4460/A assessed as reduction in microbial growth incubated for 24 hrs by microdilution assay; assay type: functional
Staphylococcus aureus [5] = assay: Antibacterial activity against wild type Staphylococcus aureus 4740/B assessed as reduction in microbial growth incubated for 24 hrs by microdilution assay; assay type: functional
Staphylococcus aureus [6] = assay: Antibacterial activity against […] Staphylococcus aureus 4461/A assessed as reduction in microbial growth incubated for 24 hrs by microdilution assay; assay type: functional
Pseudomonas aeruginosa [7] = assay: Antibacterial activity against Pseudomonas aeruginosa assessed as reduction in microbial growth measured after 20 cycles by microdilution assay; assay type: functional; details: time 24 hrs
Cell membrane = assay: Induction of plasma membrane depolarization in Staphylococcus aureus assessed as formation of fluctuating unstable pores at 2.5 mg/L; assay type: cell membranes
[8] = Cytotoxicity against human HepG2 cells assessed as reduction in cell viability; assay type: toxicity, cell-based
[9] = Toxicity in human epidermis model assessed as skin irritation incubated for 42 hrs; assay type: tissue-based
[10] = Toxicity in human cornea epidermis model assessed as tissue viability pretreated for 1 hr and measured after 42 hrs by MTT assay relative to control; assay type: tissue-based; details: read-out: Activity
[11] = Toxicity in rabbit assessed as skin irritation at 100 to 200 mg/L after administration bandaged for 4 hrs and measured after 1 to 72 hrs of contact time; design: species or system Oryctolagus cuniculus; details: in vivo, topical_or_ocular, dose lower 100 mg/L, time lower 1 hrs, dose upper 200 mg/L, time upper 76 hrs
Staphylococcus aureus [12] = assay: microbe, parasite or virus in culture; details: 4880/C, 24 h
Description: Antibacterial activity against wild type Staphylococcus aureus 4880/C assessed as reduction in microbial growth incubated for 24 hrs by microdilution assay

Structure (SMILES): CCCCCCCCOP(=O)(CCN(CCCN)CCCN)OCCCCCCOP(=O)(CCN(CCCN)CCCN)OCCCCCCCC.Cl.Cl.Cl.Cl.Cl.Cl (centres undefined)
- MIC (Escherichia coli): 0.5 µg/mL
- MIC (Pseudomonas aeruginosa [1]): 2 µg/mL
- HC50 at 3 h [2]: 162 µg/mL
- MIC (Staphylococcus aureus [3]): 0.5 µg/mL
- MIC (Staphylococcus aureus [4]): 1 µg/mL
- MIC (Staphylococcus aureus [5]): 0.5 µg/mL
- MIC (Staphylococcus aureus [6]): 0.5 µg/mL
- fold change (FC) (Pseudomonas aeruginosa [7]): 32
- Activity (Cell membrane): Active
- CC50 [8]: 33.1 µM
- Activity [9]: Non-Toxic
- viability at 42 h [10]: > 60%
- Activity [11]: Non-Toxic
- MIC (Staphylococcus aureus [12]): 0.5 µg/mL
